Results reported in patent US9687552B2, “Association of poly(N-acryloylglycinamide) with at least one active principle” (CENTRE NATIONAL DE LA RECHERCHE SCIENTIFIQUE, priority 2012, dated 2017).

How the values were obtained:
[1] = release of drug models from PAG hydrogel into physiological serum at 37° C. (UV spectrometry); format: physicochemical
Protocol: 60 mg of PAG polymer of molecular mass equal to 170 000 g/mol are placed in contact with 1 mil of physiological serum (6% by mass) in a small, hermetically scaled cylindrical flask and heated at 60° C. for a few minutes to obtain a clear, homogeneous solution, which is gelled by cooling.
The cycle is repeated twice to perfect the homogeneity of the gel.
10 mg of the compound chosen as drug model are added. The mixture is heated to have a homogeneous solution, which is left to cool to obtain the compound-gel system.
The flask is placed in a mobile incubator at 37° C. after having added on top of the gel formed 1 ml of physiological serum, into which the compound trapped in the hydrogel gradually diffuses. The receiving medium is then renewed at regular intervals and the compound that has diffused is evaluated quantitatively by UV spectrometry. The curve of gradual release is plotted as a percentage of the amount initially placed in the gel.

[2] = system: tissues and organs of the intraperitoneal cavity in mice; assay: delivery of methylene blue from PAG hydrogel to tissues and organs of the intraperitoneal cavity in mice; format: in vivo
Protocol: The delivery of the dye from the charged hydrogel to the tissues and organs of the intraperitoneal cavity in mice is observed.
To do this, an isotonic solution of PAG (molar mass equal to about 176 000 g/mol, 6% by weight of PAG) containing methylene blue (4 ml of solution (20 mg of dye) per 16 ml of gel) formed at 60° C. conditioned is introduced into heated syringes to be injected rapidly at 45° C. through a 23-gauge needle in order to fill the intraperitoneal cavity of the mice.
The mice treated according to the regulatory procedures were sacrificed after 2 hours, 8 hours, 24 hours, 30 hours and 52 hours (two animals per point).
After opening the abdomen, the distributions of the blue color in the gel, the tissues and the organs were assessed visually and compared at the same times with those observed for the control mice which received by similar injection an isotonic solution of the same concentration of methylene blue.

Structure (SMILES): CC(=O)[O-].CC(=O)[O-].[Co+2] [cobalt acetate]
- extent of release from the gel ([1]; 10 mg in PAG 170 000 g/mol gel, 6% by mass in physiological serum, 37° C.): gradual release until depletion is complete
- "burst" release as percentage of the amount initially placed in the gel ([1]; at 1 hour, 10 mg in PAG 170 000 g/mol gel, 6% by mass in physiological serum, 37° C.): less than 15%
- dissolution in the same medium without gel ([1]; physiological serum, without gel): dissolves instantaneously in its entirety

Structure (SMILES): CN(C)c1ccc2nc3ccc(=[N+](C)C)cc-3sc2c1 [methylene blue]
- time after which the blue color totally disappeared ([2]; control mice: isotonic solution of the same concentration without PAG, intraperitoneal injection): 24 h
- time the gel, tissues and organs, especially the liver, remained colored ([2]; in isotonic PAG solution (about 176 000 g/mol, 6% by weight), injected at 45° C. intraperitoneally, mice): at least 52 hours
